Measured values from patent US11008572B2, “Methods and compositions for modulating splicing” (SKYHAWK THERAPEUTICS, INC., priority 2017, dated 2021).

Tested on: A-673 cells
Assay: Cell viability, crystal violet staining
Assay type: cell-based
Conditions: Homo sapiens, A673, cell viability, read-out: A-673 IC50 (nM), Cell viability
Description: To measure cell viability, cells were plated in 96-well plastic tissue culture plates at a density of 5×10^3 cells/well. Twenty-four hours after plating, cells were treated with various SMSMs. After 72 hours, the cell culture media were removed and plates were stained with […] of a solution containing 0.5% crystal violet and 25% methanol, rinsed with deionized water, dried overnight, and resuspended in […] citrate buffer (0.1 M sodium citrate in 50% ethanol) to assess plating efficiency. Intensity of crystal violet staining, assessed at 570 nm and quantified using a Vmax Kinetic Microplate Reader and Softmax software (Molecular Devices Corp., Menlo Park, Calif.), were directly proportional to cell number. Data were normalized to vehicle-treated cells and were presented as the mean±SE from representative experiments. SMSMs that are effective were determined for various cells lines.
A-673 cell viability […], splicing (IC50) and brain AUC/Plasma AUC of SMSMs were determined. As shown in the tables below SMSMs had high CNS exposure.

SMILES | IC50
Cc1nnc(-c2ccc(-c3ccc(O[C@@H]4C[C@H]5CC[C@@H](C4)N5)nn3)c(O)c2)o1 [compound 247, 2-(6-(((1R,3s,5S)-8-azabicyclo[3.2.1]octan-3-yl)oxy)pyridazin-3-yl)-5-(5-methyl-1,3,4-oxadiazol-2-yl)phenol] | > 1000 nM
Oc1cc(-n2cccn2)ccc1-c1ccc(O[C@@H]2C[C@H]3CC[C@@H](C2)N3)nn1 [compound 248, 2-(6-(((1R,3s,5S)-8-azabicyclo[3.2.1]octan-3-yl)oxy)pyridazin-3-yl)-5-(1H-pyrazol-1-yl)phenol] | 501 to 1000 nM
CN(c1ccc(-c2ccc(-c3ccn(C)c(=O)c3)cc2O)nn1)[C@H]1C[C@]2(C)CCC[C@](C)(C1)N2 [compound 259, 4-(4-(6-(((1R,3s,5S)-1,5-dimethyl-9-azabicyclo[3.3.1]nonan-3-yl)(methyl)amino)pyridazin-3-yl)-3-hydroxyphenyl)-1-methylpyridin-2(1H)-one] | < 10 nM
CN(c1ccc(-c2ccc(-c3cnn(C)c(=O)c3)cc2O)nn1)[C@H]1C[C@]2(C)CCC[C@](C)(C1)N2 [compound 260, 5-(4-(6-(((1R,3s,5S)-1,5-dimethyl-9-azabicyclo[3.3.1]nonan-3-yl)(methyl)amino)pyridazin-3-yl)-3-hydroxyphenyl)-2-methylpyridazin-3(2H)-one] | < 10 nM
CNC(=O)c1cc2cc(-c3ccc(N(C)[C@H]4C[C@]5(C)CCC[C@](C)(C4)N5)nn3)c(O)cc2o1 [compound 261, 5-(6-(((1R,3s,5S)-1,5-dimethyl-9-azabicyclo[3.3.1]nonan-3-yl)(methyl)amino)pyridazin-3-yl)-6-hydroxy-N-methylbenzofuran-2-carboxamide] | 10 to 100 nM
C[C@]12CCC[C@](C)(C[C@@H](Oc3ccc(-c4ccc(-c5cn[nH]c5)cc4O)nn3)C1)N2 [compound 262, 2-(6-(((1R,3s,5S)-1,5-dimethyl-9-azabicyclo[3.3.1]nonan-3-yl)oxy)pyridazin-3-yl)-5-(1H-pyrazol-4-yl)phenol] | 101 to 250 nM
C[C@]12CCC[C@](C)(C[C@@H](Oc3ccc(-c4cc(F)c(-c5cn[nH]c5)cc4O)nn3)C1)N2 [compound 263, 2-(6-(((1R,3s,5S)-1,5-dimethyl-9-azabicyclo[3.3.1]nonan-3-yl)oxy)pyridazin-3-yl)-4-fluoro-5-(1H-pyrazol-4-yl)phenol] | < 10 nM
CN(c1ccc(-c2cc(F)c(-c3ccn(C)c(=O)c3)cc2O)nn1)[C@H]1C[C@]2(C)CCC[C@](C)(C1)N2 [compound 265, 4-(4-(6-(((1R,3s,5S)-1,5-dimethyl-9-azabicyclo[3.3.1]nonan-3-yl)(methyl)amino)pyridazin-3-yl)-2-fluoro-5-hydroxyphenyl)-1-methylpyridin-2(1H)-one] | < 10 nM
[2H]C([2H])([2H])Oc1cc(-c2ccc(-c3ccc(N(C)[C@H]4C[C@]5(C)CCC[C@](C)(C4)N5)nn3)c(O)c2)cnn1 [compound 268, 2-(6-(((1R,3s,5S)-1,5-dimethyl-9-azabicyclo[3.3.1]nonan-3-yl)(methyl)amino)pyridazin-3-yl)-5-(6-(methoxy-d3)pyridazin-4-yl)phenol] | < 10 nM
[2H]C([2H])([2H])Oc1cc(-c2cc(O)c(-c3ccc(N(C)[C@H]4C[C@]5(C)CCC[C@](C)(C4)N5)nn3)cc2F)cnn1 [compound 269, 2-(6-(((1R,3s,5S)-1,5-dimethyl-9-azabicyclo[3.3.1]nonan-3-yl)(methyl)amino)pyridazin-3-yl)-4-fluoro-5-(6-(methoxy-d3)pyridazin-4-yl)phenol] | < 10 nM
CN(c1ccc(-c2cc(F)c(-c3cn[nH]c3)cc2O)nn1)[C@@H]1C[C@H]2CCC[C@@H](C1)N2 [compound 271, 2-(6-(((1R,3s,5S)-9-azabicyclo[3.3.1]nonan-3-yl)(methyl)amino)pyridazin-3-yl)-4-fluoro-5-(1H-pyrazol-4-yl)phenol] | < 10 nM
CN(c1ccc(-c2ccc(-n3ccnc3)cc2O)nn1)[C@@H]1C[C@H]2CCC[C@@H](C1)N2 [compound 272, 2-(6-(((1R,3s,5S)-9-azabicyclo[3.3.1]nonan-3-yl)(methyl)amino)pyridazin-3-yl)-5-(1H-imidazol-1-yl)phenol] | 10 to 100 nM
Cc1ncc(-c2ccc(-c3ccc(N(C)[C@@H]4C[C@H]5CCC[C@@H](C4)N5)nn3)c(O)c2)o1 [compound 273, 2-(6-(((1R,3s,5S)-9-azabicyclo[3.3.1]nonan-3-yl)(methyl)amino)pyridazin-3-yl)-5-(2-methyloxazol-5-yl)phenol] | < 10 nM
Cc1ncc(-c2cc(O)c(-c3ccc(N(C)[C@@H]4C[C@H]5CCC[C@@H](C4)N5)nn3)cc2F)o1 [compound 274, 2-(6-(((1R,3s,5S)-9-azabicyclo[3.3.1]nonan-3-yl)(methyl)amino)pyridazin-3-yl)-4-fluoro-5-(2-methyloxazol-5-yl)phenol] | < 10 nM
CN(c1ccc(-c2ccc(-c3cnn(C)c(=O)c3)cc2O)nn1)[C@@H]1C[C@H]2CCC[C@@H](C1)N2 [compound 280, 5-(4-(6-(((1R,3s,5S)-9-azabicyclo[3.3.1]nonan-3-yl)(methyl)amino)pyridazin-3-yl)-3-hydroxyphenyl)-2-methylpyridazin-3(2H)-one] | 10 to 100 nM
CN(c1ccc(-c2ccc(-c3ccn(C)c(=O)c3)cc2O)nn1)[C@@H]1C[C@H]2CCC[C@@H](C1)N2 [compound 283, 4-(4-(6-(((1R,3s,5S)-9-azabicyclo[3.3.1]nonan-3-yl)(methyl)amino)pyridazin-3-yl)-3-hydroxyphenyl)-1-methylpyridin-2(1H)-one] | < 10 nM
CN(c1ccc(-c2cc(F)c(-c3cnn(C)c(=O)c3)cc2O)nn1)[C@@H]1C[C@H]2CCC[C@@H](C1)N2 [compound 286, 5-(4-(6-(((1R,3s,5S)-9-azabicyclo[3.3.1]nonan-3-yl)(methyl)amino)pyridazin-3-yl)-2-fluoro-5-hydroxyphenyl)-2-methylpyridazin-3(2H)-one] | < 10 nM
CN(c1ccc(-c2ccc(-c3cnn(C)c3)cc2O)nn1)[C@@H]1C[C@H]2CCC[C@@H](C1)N2 [compound 287, 2-(6-(((1R,3s,5S)-9-azabicyclo[3.3.1]nonan-3-yl)(methyl)amino)pyridazin-3-yl)-5-(1-methyl-1H-pyrazol-4-yl)phenol] | < 10 nM
[2H]C([2H])([2H])n1cc(-c2ccc(-c3ccc(N(C)[C@@H]4C[C@H]5CCC[C@@H](C4)N5)nn3)c(O)c2)cn1 [compound 288, 2-(6-(((1R,3s,5S)-9-azabicyclo[3.3.1]nonan-3-yl)(methyl)amino)pyridazin-3-yl)-5-(1-(methyl-d3)-1H-pyrazol-4-yl)phenol] | 10 to 100 nM
Cc1cc(-c2ccc(-c3ccc(N(C)[C@@H]4C[C@H]5CCC[C@@H](C4)N5)nn3)c(O)c2)cc(=O)n1C [compound 290, 4-(4-(6-(((1R,3s,5S)-9-azabicyclo[3.3.1]nonan-3-yl)(methyl)amino)pyridazin-3-yl)-3-hydroxyphenyl)-1,6-dimethylpyridin-2(1H)-one] | 251 to 500 nM
CN(c1ccc(-c2ccc(-c3ccn(CF)c(=O)c3)cc2O)nn1)[C@@H]1C[C@H]2CCC[C@@H](C1)N2 [compound 291, 4-(4-(6-(((1R,3s,5S)-9-azabicyclo[3.3.1]nonan-3-yl)(methyl)amino)pyridazin-3-yl)-3-hydroxyphenyl)-1-(fluoromethyl)pyridin-2(1H)-one] | < 10 nM
COc1cc(-c2ccc(-c3ccc(N(C)[C@@H]4C[C@H]5CCC[C@@H](C4)N5)nn3)c(O)c2)ccc1C [compound 292, 4-(6-(((1R,3s,5S)-9-azabicyclo[3.3.1]nonan-3-yl)(methyl)amino)pyridazin-3-yl)-3′-methoxy-4′-methyl-[1,1′-biphenyl]-3-ol] | > 1000 nM
CN(c1ccc(-c2ccc(-c3cc[nH]c(=O)c3)cc2O)nn1)[C@@H]1C[C@H]2CCC[C@@H](C1)N2 [compound 293, 4-(4-(6-(((1R,3s,5S)-9-azabicyclo[3.3.1]nonan-3-yl)(methyl)amino)pyridazin-3-yl)-3-hydroxyphenyl)pyridin-2(1H)-one] | 10 to 100 nM
CNC(=O)c1cc2cc(O)c(-c3ccc(N(C)[C@@H]4C[C@H]5CCC[C@@H](C4)N5)nn3)cc2o1 [compound 294, 6-(6-(((1R,3s,5S)-9-azabicyclo[3.3.1]nonan-3-yl)(methyl)amino)pyridazin-3-yl)-5-hydroxy-N-methylbenzofuran-2-carboxamide] | 501 to 1000 nM
CN(C)C(=O)c1cc2cc(O)c(-c3ccc(N(C)[C@@H]4C[C@H]5CCC[C@@H](C4)N5)nn3)cc2o1 [compound 295, 6-(6-(((1R,3s,5S)-9-azabicyclo[3.3.1]nonan-3-yl)(methyl)amino)pyridazin-3-yl)-5-hydroxy-N,N-dimethylbenzofuran-2-carboxamide] | 251 to 500 nM
CNC(=O)c1cc2cc(-c3ccc(N(C)[C@@H]4C[C@H]5CCC[C@@H](C4)N5)nn3)c(O)cc2o1 [compound 297, 5-(6-(((1R,3s,5S)-9-azabicyclo[3.3.1]nonan-3-yl)(methyl)amino)pyridazin-3-yl)-6-hydroxy-N-methylbenzofuran-2-carboxamide] | 10 to 100 nM
CN(C)C(=O)c1cc2cc(-c3ccc(N(C)[C@@H]4C[C@H]5CCC[C@@H](C4)N5)nn3)c(O)cc2o1 [compound 298, 5-(6-(((1R,3s,5S)-9-azabicyclo[3.3.1]nonan-3-yl)(methyl)amino)pyridazin-3-yl)-6-hydroxy-N,N-dimethylbenzofuran-2-carboxamide] | 10 to 100 nM

Same assay, conditions: Homo sapiens, A673, read-out: A-673 cell viability (IC50)

SMILES | IC50
CN(c1ccc(-c2ccc(-c3ccn(C)c(=O)c3)cc2O)nn1)[C@H]1C[C@]2(C)CCC[C@](C)(C1)N2 [compound 259, 4-(4-(6-(((1R,3s,5S)-1,5-dimethyl-9-azabicyclo[3.3.1]nonan-3-yl)(methyl)amino)pyridazin-3-yl)-3-hydroxyphenyl)-1-methylpyridin-2(1H)-one] | < 1 nM

Same assay, conditions: cell viability, read-out: A-673 IC50 (nM), Cell viability

SMILES | IC50
Oc1cc(-c2cn[nH]c2)ccc1-c1ccc(O[C@@H]2C[C@H]3CCC[C@@H](C2)N3)nn1 [compound 276, 2-(6-(((1R,3s,5S)-9-azabicyclo[3.3.1]nonan-3-yl)oxy)pyridazin-3-yl)-5-(1H-pyrazol-4-yl)phenol] | 101 to 250 nM
